Like-named read-outs stand apart in the source and are kept apart here.
Target: Asp-2 (Homo sapiens, UniProt P56817)
Test: Asp-2 Inhibitory Assay
Type: biochemical
Conditions: Assay (I), FAM-SEVNLDAEFK-TAMRA substrate, pH 4.5
Experimental: (I) Asp-2 Inhibitory Assay
This is prepared by diluting 2 ml of a 2 mM DMSO solution of the substrate into 400 ml of buffer (100 mM Sodium acetate pH=4.5, 1 l Milli-Q water, 0.06% Triton X-100 (0.5 ml/l), pH adjusted to 4.5 using glacial acetic acid). […] This is prepared by diluting 16 ml of a 500 nM enzyme solution into 384 ml of buffer (prepared as above).
Blank wells (enzyme solution replaced by buffer) are included as controls on each plate.

Asp-2, sequence (P56817 46-501): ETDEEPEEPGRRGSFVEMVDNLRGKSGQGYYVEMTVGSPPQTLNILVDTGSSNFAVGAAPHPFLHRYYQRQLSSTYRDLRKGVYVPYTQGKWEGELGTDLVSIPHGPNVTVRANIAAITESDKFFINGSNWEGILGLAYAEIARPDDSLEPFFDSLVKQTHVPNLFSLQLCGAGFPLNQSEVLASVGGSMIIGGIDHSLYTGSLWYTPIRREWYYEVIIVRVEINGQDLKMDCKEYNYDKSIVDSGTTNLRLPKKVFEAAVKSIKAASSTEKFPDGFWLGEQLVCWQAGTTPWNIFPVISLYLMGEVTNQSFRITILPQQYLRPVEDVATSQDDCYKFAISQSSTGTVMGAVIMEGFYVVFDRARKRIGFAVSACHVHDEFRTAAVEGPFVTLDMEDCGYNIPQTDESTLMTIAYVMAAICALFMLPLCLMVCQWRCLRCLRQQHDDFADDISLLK

Row | IC50 (inhibition (Asp-2)) | Compound | IC50 (read-out: inhibition (Asp-2))
1 | – | CCCC[C@H](NC[C@@H](O)[C@H](Cc1ccccc1)NC(=O)c1cc(OC(C)C)cc(N2CCCC2=O)c1)C(=O)NCC(C)C [Example E179, N-[(1S,2R)-1-Benzyl-2-hydroxy-3-((S)-1-isobutylcarbamoyl-pentylamino)-propyl]-3-isopropoxy-5-(2-oxopyrrolidin-1-yl)benzamide] | 1 to 50 nM
2 | 1 to 50 nM | CCNc1cc(C(=O)N[C@@H](Cc2ccccc2)[C@H](O)CNCc2cccc(OC(F)(F)F)c2)cc(N2CCCC2=O)c1 [Example E86, N-[(1S,2R)-1-Benzyl-2-hydroxy-3-(3-trifluoromethoxybenzylamino)-propyl]-3-ethylamino-5-(2-oxopyrrolidin-1-yl)benzamide] | –
3 | – | C[C@H](NC[C@@H](O)[C@H](Cc1ccccc1)NC(=O)c1cc(C2CCCC2)cc(N2CCCC2=O)c1)C(=O)NC1CCCCC1 [Example E12, N-[(1S,2R)-1-Benzyl-3-((S)-1-cyclohexylcarbamoylethylamino)-2-hydroxypropyl]-3-cyclopentyl-5-(2-oxopyrrolidin-1-yl)benzamide] | 1 to 50 nM
4 | – | O=C(NC(Cc1ccccc1)C(O)CNCc1cccc(C(F)(F)F)c1)c1cc(C2CCCC2)cc(N2CCCC2=O)c1 (centres unmarked) [Example E22, N-[1-Benzyl-2-hydroxy-3-(3-trifluoromethylbenzylamino)propyl]-3-cyclopentyl-5-(2-oxopyrrolidin-1-yl)benzamide] | 1 to 50 nM
5 | – | CC(C)CCCC(C)NC[C@@H](O)[C@H](Cc1ccccc1)NC(=O)c1cc(NC(C)C)cc(N2CCCC2=O)c1 (stereo partly drawn) [Example E60, N-[(1S,2R)-1-Benzyl-3-(1,5-dimethylhexylamino)-2-hydroxypropyl]-3-isopropylamino-5-(2-oxopyrrolidin-1-yl)benzamide] | 1 to 50 nM
6 | – | CCCCNc1cc(C(=O)N[C@@H](Cc2ccccc2)[C@H](O)CN[C@@H](C)C(=O)NC2CCCCC2)cc(N2CCCC2=O)c1 [Example E56, N-[(1S,2R)-1-Benzyl-3-((S)-1-cyclohexylcarbamoylethylamino)-2-hydroxypropyl]-3-butylamino-5-(2-oxopyrrolidin-1-yl)benzamide] | 1 to 50 nM
7 | – | CCC(CC)Nc1cc(C(=O)N[C@@H](Cc2ccccc2)[C@H](O)CN[C@@H](C)C(=O)NC2CCCCC2)cc(N2CCCC2=O)c1 [Example E55, N-[(1S,2R)-1-Benzyl-3-((S)-1-cyclohexylcarbamoylethylamino)-2-hydroxypropyl]-3-(1-ethylpropylamino)-5-(2-oxopyrrolidin-1-yl)benzamide] | 1 to 50 nM
8 | – | CCCCCNc1cc(C(=O)N[C@@H](Cc2ccccc2)[C@H](O)CN[C@@H](C)C(=O)NC2CCCCC2)cc(N2CCCC2=O)c1 [Example E54, N-[(1S,2R)-1-Benzyl-3-((S)-1-cyclohexylcarbamoylethylamino)-2-hydroxypropyl]-3-(2-oxopyrrolidin-1-yl)-5-pentylaminobenzamide] | 1 to 50 nM
